Test results published in patent US8569493B2 (Santen Pharmaceutical Co., Ltd., priority 2007, dated 2013).

target: T1, Recombinant human GR (Homo sapiens, UniProt P04150); experiment: GR competitor assay by fluorescence polarization (binding activity to glucocorticoid receptor); conditions: 20 μM test compound solution, 10 μL per well plus 5 μL 4×GS1 and 5 μL 4×GR; 2 to 4 hours at room temperature; ratio of 100% or more is indicated by 100%
T1 construct: purchased Invitrogen P2816
T1 sequence (P04150 1-777): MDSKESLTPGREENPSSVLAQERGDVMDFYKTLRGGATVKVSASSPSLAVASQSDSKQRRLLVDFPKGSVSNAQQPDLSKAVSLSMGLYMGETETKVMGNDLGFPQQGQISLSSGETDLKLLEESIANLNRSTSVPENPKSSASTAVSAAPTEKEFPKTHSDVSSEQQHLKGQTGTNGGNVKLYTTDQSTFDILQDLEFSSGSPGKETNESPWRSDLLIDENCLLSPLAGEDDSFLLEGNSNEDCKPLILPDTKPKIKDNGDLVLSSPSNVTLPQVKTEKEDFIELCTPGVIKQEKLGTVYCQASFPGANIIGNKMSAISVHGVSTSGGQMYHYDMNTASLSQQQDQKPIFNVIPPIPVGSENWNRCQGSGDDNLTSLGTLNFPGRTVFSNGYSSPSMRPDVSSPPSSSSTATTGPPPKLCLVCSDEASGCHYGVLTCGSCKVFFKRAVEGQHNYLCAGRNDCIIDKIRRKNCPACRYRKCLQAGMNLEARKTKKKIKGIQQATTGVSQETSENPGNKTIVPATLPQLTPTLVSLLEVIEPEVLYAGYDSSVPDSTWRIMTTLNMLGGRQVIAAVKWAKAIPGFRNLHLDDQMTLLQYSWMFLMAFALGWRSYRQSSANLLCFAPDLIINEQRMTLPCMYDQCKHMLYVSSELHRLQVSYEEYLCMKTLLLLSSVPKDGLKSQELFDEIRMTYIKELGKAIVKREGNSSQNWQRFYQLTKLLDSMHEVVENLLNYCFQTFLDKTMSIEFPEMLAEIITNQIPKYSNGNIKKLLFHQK
Description: 1. Evaluation Test for Binding Activity to Glucocorticoid Receptor (hereinafter referred to as “GR”)
In order to evaluate a binding activity to GR, a receptor competitor assay was carried out by a fluorescence polarization method. In the assay, a GR competitor assay kit (manufactured by Invitrogen, cat No. P2816) was used, and a procedure was carried out according to the protocol attached to the kit. Hereinafter, the specific method will be described.
(Preparation of Reagents)
GR screening buffer: A buffer containing 10 mM potassium phosphate (pH 7.4), 20 mM sodium molybdate (Na2MoO4), 0.1 mM ethylene diamine tetraacetic acid (EDTA), 5 mM dithiothreitol (DTT), 0.1 mM stabilizing peptide and 2% dimethylsulfoxide was prepared.
4×GS1 solution: Fluormone™ GS1, which is a fluorescent glucocorticoid ligand, was diluted with GR screening buffer, whereby a 4 nM solution was prepared.
4×GR solution: Recombinant human GR was diluted with GR screening buffer, whereby a 16 nM solution was prepared.
(Preparation of Test Compound Solution)
After a test compound was dissolved in dimethylsulfoxide, it was diluted with GR screening buffer, whereby a 20 μM test compound solution was prepared.
(Test Method and Measurement Method)
1) The test compound solution was added in an amount of 10 μL into each well of a 384-well plate, and then, 4×GS1 solution and 4×GR solution were added in an amount of 5 μL into each well, respectively.
2) The plate was incubated in a dark place at room temperature for 2 to 4 hours.
3) By using a multimode plate reader, Analyst™ HT (manufactured by LJL Biosystems), fluorescence polarization of each well was measured. As the blank, a well containing GR screening buffer in place of the test compound and 4×GS1 solution was used.
4) The same procedure as that in the above 1) to 3) was carried out except that GR screening buffer was used in place of the test compound solution, and the obtained result was taken as the negative control.
5) The same procedure as that in the above 1) to 3) was carried out except that 2 mM dexamethasone was used in place of the test compound solution, and the obtained result was taken as the positive control.
(Calculation Equation of GR Binding Ratio)
A GR binding ratio (%) was calculated from the following equation. GR binding ratio(%)=100×[1−(fluorescence polarization of test compound solution−fluorescence polarization of positive control solution)/(fluorescence polarization of negative control solution−fluorescence polarization of positive control solution)] (Test Results and Discussion)

inhibition at 10 µM [%] | Compound
94 | COc1cc(OS(=O)(=O)CCCNCc2ccccc2)ccc1-c1ccc2c(c1COc1cc(F)ccc1C)N(C)C(=O)C(C)(C)N2 [Compound 3-1, 7-[4-(3-Benzylaminopropylsulfonyloxy)-2-methoxyphenyl]-8-(5-fluoro-2-methylphenoxymethyl)-1,3,3-trimethyl-3,4-dihydro-1H-quinoxalin-2-one]
100 | CCCNCCCS(=O)(=O)Oc1ccc(-c2ccc3c(c2COc2cc(F)ccc2C)N(C)C(=O)C(C)(C)N3)c(OC)c1 [Compound 3-2, 8-(5-Fluoro-2-methylphenoxymethyl)-7-[2-methoxy-4-(3-propylaminopropylsulfonyloxy)phenyl]-1,3,3-trimethyl-3,4-dihydro-1H-quinoxalin-2-one]
100 | COc1cc(OS(=O)(=O)CCCN2CCOCC2)ccc1-c1ccc2c(c1COc1cc(F)ccc1C)N(C)C(=O)C(C)(C)N2 [Compound 3-3, 8-(5-Fluoro-2-methylphenoxymethyl)-7-[2-methoxy-4-[3-(morpholin-4-yl)propylsulfonyloxy]phenyl]-1,3,3-trimethyl-3,4-dihydro-1H-quinoxalin-2-one]
71 | COc1cc(OS(=O)(=O)CCCN2CCCCC2)ccc1-c1ccc2c(c1COc1cc(F)ccc1C)N(C)C(=O)C(C)(C)N2 [Compound 3-4]
100 | COc1cc(OS(=O)(=O)CCCN(C)CCN(C)C)ccc1-c1ccc2c(c1COc1cc(F)ccc1C)N(C)C(=O)C(C)(C)N2 [Compound 3-5, 7-[4-[3-[N-(2-Dimethylaminoethyl)-N-methylamino]propylsulfonyloxy]-2-methoxyphenyl]-8-(5-fluoro-2-methylphenoxymethyl)-1,3,3-trimethyl-3,4-dihydro-1H-quinoxalin-2-one]
99 | CNCCN(C)CCCS(=O)(=O)Oc1ccc(-c2ccc3c(c2COc2cc(F)ccc2C)N(C)C(=O)C(C)(C)N3)c(OC)c1 [Compound 3-6, 8-(5-Fluoro-2-methylphenoxymethyl)-7-[2-methoxy-4-[3-[N-(2-methylaminoethyl)-N-methylamino]propylsulfonyloxy]phenyl]-1,3,3-trimethyl-3,4-dihydro-1H-quinoxalin-2-one]

The remaining lines, values behind:

Compound | inhibition at 10 µM [%]
CCCS(=O)(=O)Oc1ccc(-c2ccc3c(c2COc2cc([N+](=O)[O-])ccc2OC)N(C)C(=O)C(C)(C)N3)c(OC)c1 [Compound 1-44] | 93
COc1cc(OS(=O)(=O)C2CC2)ccc1-c1ccc2c(c1COc1cc([N+](=O)[O-])ccc1C)N(C)C(=O)C(C)(C)N2 [Compound 1-45] | 94
COc1cc(OS(=O)(=O)CCC(F)(F)F)ccc1-c1ccc2c(c1COc1cc([N+](=O)[O-])ccc1C)N(C)C(=O)C(C)(C)N2 [Compound 1-46] | 95
COc1cc(OS(=O)(=O)C2CCCC2)ccc1-c1ccc2c(c1COc1cc([N+](=O)[O-])ccc1C)N(C)C(=O)C(C)(C)N2 [Compound 1-50] | 98
COc1cc(OS(=O)(=O)CCCCl)ccc1-c1ccc2c(c1COc1cc(F)ccc1C)N(C)C(=O)C(C)(C)N2 [Compound 1-54, 7-[4-(3-chloropropylsulfonyloxy)-2-methoxyphenyl]-8-(5-fluoro-2-methylphenoxymethyl)-1,3,3-trimethyl-3,4-dihydro-1H-quinoxalin-2-one] | 99
COc1cc(OS(=O)(=O)C2CCCC2)ccc1-c1ccc2c(c1CNc1cc(F)ccc1C)N(C)C(=O)C(C)(C)N2 [Compound 1-57] | 93
CCCS(=O)(=O)Oc1ccc(-c2ccc3c(c2CNc2cc(F)ccc2C)N(C)C(=O)C(C)(C)N3)c(OC)c1 [Compound 1-58] | 100
COc1ccccc1NCc1c(-c2ccc(OS(C)(=O)=O)cc2OC)ccc2c1N(C)C(=O)C(C)(C)N2 [Compound 2-1, 7-(2-Methoxy-4-methylsulfonyloxyphenyl)-8-(2-methoxyphenylaminomethyl)-1,3,3-trimethyl-3,4-dihydro-1H-quinoxalin-2-one] | 95
COc1ccccc1NCc1c(-c2ccc(OS(=O)(=O)c3ccccc3)cc2OC)ccc2c1N(C)C(=O)C(C)(C)N2 [Compound 2-2, 8-(2-Methoxyphenylaminomethyl)-7-(2-methoxy-4-phenylsulfonyloxyphenyl)-1,3,3-trimethyl-3,4-dihydro-1H-quinoxalin-2-one] | 89
COc1ccccc1NCc1c(-c2ccc(OS(=O)(=O)C3CC3)cc2OC)ccc2c1N(C)C(=O)C(C)(C)N2 [Compound 2-3] | 93
COc1ccccc1NCc1c(-c2ccc(OS(=O)(=O)CCC(F)(F)F)cc2OC)ccc2c1N(C)C(=O)C(C)(C)N2 [Compound 2-4, 8-(2-Methoxyphenylaminomethyl)-7-[2-methoxy-4-(3,3,3-trifluoropropylsulfonyloxy)phenyl]-1,3,3-trimethyl-3,4-dihydro-1H-quinoxalin-2-one] | 91
COc1ccccc1NCc1c(-c2ccc(OS(=O)(=O)CC(C)C)cc2OC)ccc2c1N(C)C(=O)C(C)(C)N2 [Compound 2-5, 7-(4-Isobutylsulfonyloxy-2-methoxyphenyl)-8-(2-methoxyphenylaminomethyl)-1,3,3-trimethyl-3,4-dihydro-1H-quinoxalin-2-one] | 97
COc1ccccc1NCc1c(-c2ccc(OS(=O)(=O)C(C)C)cc2OC)ccc2c1N(C)C(=O)C(C)(C)N2 [Compound 2-6, 7-(4-Isopropylsulfonyloxy-2-methoxyphenyl)-8-(2-methoxyphenylaminomethyl)-1,3,3-trimethyl-3,4-dihydro-1H-quinoxalin-2-one] | 100
COc1ccccc1NCc1c(-c2ccc(OS(=O)(=O)C3CCCC3)cc2OC)ccc2c1N(C)C(=O)C(C)(C)N2 [Compound 2-7, 7-(4-Cyclopentylsulfonyloxy-2-methoxyphenyl)-8-(2-methoxyphenylaminomethyl)-1,3,3-trimethyl-3,4-dihydro-1H-quinoxalin-2-one] | 99
CCCS(=O)(=O)Oc1ccc(-c2ccc3c(c2CNc2ccccc2OC)N(C)C(=O)C(C)(C)N3)c(OC)c1 [Compound 2-8, 8-(2-Methoxyphenylaminomethyl)-7-(2-methoxy-4-propylsulfonyloxyphenyl)-1,3,3-trimethyl-3,4-dihydro-1H-quinoxalin-2-one] | 98
